The CheMixHub ionic liquid set

Experiment: xn = mol fraction of the nth substance listed
Conditions: 100 kPa

CCCC[n+]1ccn(C)c1.O=[N+]([O-])[O-] + CCCCCCO
viscosity [mPa·s]
Conditions	293.15 K	303.15 K	313.15 K	323.15 K
x1 = 0.0811	6.41	4.47	3.24	2.45
x1 = 0.1741	7.98	5.21	3.72	2.75
x1 = 0.2418	9.59	6.02	4.21	3.02
x1 = 0.3587	13.3	8.24	5.33	3.63
x1 = 0.4426	17.5	10.69	6.48	4.22
x1 = 0.5532	26.6	15.4	8.94	5.49
x1 = 0.6538	40.2	23	12.8	7.56
x1 = 0.7414	60.7	33.8	18.9	10.83
x1 = 0.8519	103.2	58.4	33.4	18.5
x1 = 0.9367	162	90.8	53.2	30.6
x1 = 1	224	125	75.1	45.2

CCOS(=O)(=O)[O-].CC[n+]1ccn(C)c1 + OCC(O)CO
Conditions	electrical conductivity [S/m]	viscosity [mPa·s]
298.15 K, x1 = 0.002	0.000368	–
298.15 K, x1 = 0.004	0.00065	–
298.15 K, x1 = 0.012	0.00204	–
298.15 K, x2 = 0.123	0.396	89.1
298.15 K, x2 = 0.601	0.248	91.5
298.15 K, x2 = 0.98	0.00333	–
303.15 K, x2 = 0.264	–	65
303.15 K, x2 = 0.5	–	63.7
303.15 K, x2 = 0.98	–	494
313.15 K, x1 = 0.002	0.00114	279.6
313.15 K, x1 = 0.004	0.002	274.6
313.15 K, x2 = 0.958	0.0222	199
